Legend:
FECH = biological target: T1, FECH (Homo sapiens, UniProt P22830); assay: TPP-CCR in living HL-60 cells; assay type: cell-based
T1 construct: endogenous in cells; host or cells: HL-60 (ATCC CCL-240)
T1 sequence (P22830 55-423): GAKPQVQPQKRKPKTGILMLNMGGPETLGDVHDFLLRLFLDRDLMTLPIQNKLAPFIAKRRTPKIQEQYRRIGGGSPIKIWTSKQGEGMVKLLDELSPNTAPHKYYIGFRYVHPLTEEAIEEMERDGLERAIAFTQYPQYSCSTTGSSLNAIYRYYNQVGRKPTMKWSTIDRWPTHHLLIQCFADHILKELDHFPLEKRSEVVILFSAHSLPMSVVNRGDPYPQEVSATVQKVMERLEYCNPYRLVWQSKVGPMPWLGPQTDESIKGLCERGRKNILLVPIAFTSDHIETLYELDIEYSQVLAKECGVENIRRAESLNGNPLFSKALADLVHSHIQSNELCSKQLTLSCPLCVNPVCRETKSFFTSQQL

GANAB = biological target: T2, GANAB (Homo sapiens, UniProt Q14697); assay: TPP-CCR in living HL-60 cells; assay type: cell-based
T2 construct: endogenous in cells; host or cells: HL-60 (ATCC CCL-240)
T2 sequence (Q14697 29-944): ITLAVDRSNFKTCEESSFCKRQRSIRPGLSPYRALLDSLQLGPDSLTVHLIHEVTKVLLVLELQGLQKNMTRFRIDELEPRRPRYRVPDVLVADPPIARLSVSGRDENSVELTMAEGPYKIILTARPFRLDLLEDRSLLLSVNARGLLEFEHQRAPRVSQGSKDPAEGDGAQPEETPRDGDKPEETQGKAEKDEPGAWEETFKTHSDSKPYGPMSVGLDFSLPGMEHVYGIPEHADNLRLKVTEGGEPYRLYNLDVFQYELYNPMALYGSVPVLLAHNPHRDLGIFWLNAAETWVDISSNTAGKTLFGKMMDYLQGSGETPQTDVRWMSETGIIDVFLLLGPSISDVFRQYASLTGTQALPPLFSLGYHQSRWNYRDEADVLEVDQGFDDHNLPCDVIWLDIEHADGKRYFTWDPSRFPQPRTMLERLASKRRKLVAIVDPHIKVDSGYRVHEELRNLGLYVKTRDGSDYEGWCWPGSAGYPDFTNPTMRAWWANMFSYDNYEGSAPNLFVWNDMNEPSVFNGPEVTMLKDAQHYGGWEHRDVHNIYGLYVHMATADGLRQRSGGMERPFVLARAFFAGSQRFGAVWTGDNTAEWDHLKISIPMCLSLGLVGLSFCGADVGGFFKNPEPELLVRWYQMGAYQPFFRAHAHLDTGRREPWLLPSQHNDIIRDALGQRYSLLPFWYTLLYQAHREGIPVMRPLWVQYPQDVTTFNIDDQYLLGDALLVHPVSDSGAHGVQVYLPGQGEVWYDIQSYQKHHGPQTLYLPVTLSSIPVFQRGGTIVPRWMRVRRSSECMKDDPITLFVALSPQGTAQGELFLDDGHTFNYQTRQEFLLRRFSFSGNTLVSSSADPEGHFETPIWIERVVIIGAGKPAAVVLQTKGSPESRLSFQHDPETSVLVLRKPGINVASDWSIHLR

MAPKAPK2 = system: MAPKAPK2; set-up: method as in PMID 22037378; settings: cited from earlier work
[1] = living HL-60 cells, […] °C, TMT-MS

Structure (SMILES) | Hill slope (FECH; TPP-CCR, living cells, FECH) | EC50 (FECH; [1]) [µM] | Hill slope (FECH) (FECH; [1]) | Hill slope (GANAB; TPP-CCR, living cells, GANAB) | Hill slope (GANAB) (GANAB; [1]) | EC50 (GANAB; living HL-60 cells, […] °C, TMT-MS, read-out: pEC50 (GANAB) (converted)) [µM] | activity towards MAPKAPK2 (MAPKAPK2)
Cc1cnc(Nc2ccc(F)cc2Cl)nc1-c1c[nH]c(C(=O)N[C@H](CO)c2cccc(Cl)c2)c1 [ERK 11e] | 0.38 | 0.631 | 0.38 | 1.81 | 1.81 | 5.25 | 
C[S+]([O-])c1ccc(-c2nc(-c3ccncc3)c(-c3ccc(F)cc3)[nH]2)cc1 (stereo not shown) [SB203580] |  |  |  |  |  |  | inactivity

Reference: paper PMC9147192, “Small Molecule Arranged Thermal Proximity Coaggregation (smarTPCA)—A Novel Approach to Characterize Protein–Protein Interactions in Living Cells by Similar Isothermal Dose–Responses” (International Journal of Molecular Sciences, 2022)
